Assays:
Settings in all cases: Cβ-S lyase activity; 4 mM L-cystine, 100 μM PLP, 30°C
OsACS1 = biological target: T1, OsACS1 (Oryza sativa, UniProt A2XLL2); assay: pyruvate formation, […],4-dinitrophenylhydrazine, A520; type: biochemical
T1 construct: gene ACC1; recombinant, His or GST tag, from E. coli
T1 sequence (A2XLL2 1-487): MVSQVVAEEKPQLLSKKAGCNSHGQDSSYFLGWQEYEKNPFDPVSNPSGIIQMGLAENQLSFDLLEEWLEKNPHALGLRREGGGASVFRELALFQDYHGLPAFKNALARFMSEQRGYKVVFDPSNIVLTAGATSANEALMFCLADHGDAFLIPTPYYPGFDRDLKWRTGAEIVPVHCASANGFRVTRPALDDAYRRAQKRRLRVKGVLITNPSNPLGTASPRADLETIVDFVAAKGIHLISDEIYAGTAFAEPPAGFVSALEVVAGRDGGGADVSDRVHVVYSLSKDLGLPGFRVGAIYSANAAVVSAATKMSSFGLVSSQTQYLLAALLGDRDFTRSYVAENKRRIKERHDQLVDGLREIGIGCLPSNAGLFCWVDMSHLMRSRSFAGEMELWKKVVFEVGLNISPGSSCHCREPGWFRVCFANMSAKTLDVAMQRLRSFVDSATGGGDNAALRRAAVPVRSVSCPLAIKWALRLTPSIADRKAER

AtACS8 = biological target: T2, AtACS8 (Arabidopsis thaliana, UniProt Q9T065); assay: as above; type: biochemical
T2 construct: gene ACS8; recombinant, His or GST tag, from E. coli
T2 sequence (Q9T065 1-469): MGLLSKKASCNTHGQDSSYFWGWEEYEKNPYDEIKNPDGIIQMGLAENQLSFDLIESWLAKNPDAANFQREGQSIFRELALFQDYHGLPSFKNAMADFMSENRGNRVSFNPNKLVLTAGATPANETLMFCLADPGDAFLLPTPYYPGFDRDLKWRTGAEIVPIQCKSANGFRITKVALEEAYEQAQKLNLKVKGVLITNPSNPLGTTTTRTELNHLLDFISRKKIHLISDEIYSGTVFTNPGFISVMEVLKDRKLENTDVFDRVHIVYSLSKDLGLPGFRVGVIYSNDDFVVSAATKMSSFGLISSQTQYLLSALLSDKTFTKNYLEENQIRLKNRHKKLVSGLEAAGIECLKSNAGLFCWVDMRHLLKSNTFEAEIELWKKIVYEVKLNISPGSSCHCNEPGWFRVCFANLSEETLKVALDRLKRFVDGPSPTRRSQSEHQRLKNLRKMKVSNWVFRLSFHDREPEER

AtACS6 = biological target: T3, AtACS6 (Arabidopsis thaliana, UniProt Q9SAR0); assay: as above; type: biochemical
T3 construct: gene ACS6; recombinant, His or GST tag, from E. coli
T3 sequence (Q9SAR0 1-495): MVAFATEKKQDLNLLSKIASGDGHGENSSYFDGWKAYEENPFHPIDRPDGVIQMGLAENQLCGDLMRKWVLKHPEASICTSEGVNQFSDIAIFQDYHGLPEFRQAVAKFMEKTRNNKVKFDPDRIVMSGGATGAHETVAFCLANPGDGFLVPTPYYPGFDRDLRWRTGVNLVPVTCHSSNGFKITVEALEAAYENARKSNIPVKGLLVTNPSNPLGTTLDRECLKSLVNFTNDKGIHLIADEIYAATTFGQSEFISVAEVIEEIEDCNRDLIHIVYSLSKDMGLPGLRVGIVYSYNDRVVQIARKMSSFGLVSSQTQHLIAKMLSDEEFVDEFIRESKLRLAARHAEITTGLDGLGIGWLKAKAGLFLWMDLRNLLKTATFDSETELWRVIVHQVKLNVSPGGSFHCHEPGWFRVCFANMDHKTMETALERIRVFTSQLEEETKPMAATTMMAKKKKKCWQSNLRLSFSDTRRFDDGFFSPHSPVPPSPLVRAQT

AtACS11 = biological target: T4, AtACS11 (Arabidopsis thaliana, UniProt Q9S9U6); assay: as above; type: biochemical
T4 construct: gene ACS11; recombinant, His or GST tag, from E. coli
T4 sequence (Q9S9U6 1-460): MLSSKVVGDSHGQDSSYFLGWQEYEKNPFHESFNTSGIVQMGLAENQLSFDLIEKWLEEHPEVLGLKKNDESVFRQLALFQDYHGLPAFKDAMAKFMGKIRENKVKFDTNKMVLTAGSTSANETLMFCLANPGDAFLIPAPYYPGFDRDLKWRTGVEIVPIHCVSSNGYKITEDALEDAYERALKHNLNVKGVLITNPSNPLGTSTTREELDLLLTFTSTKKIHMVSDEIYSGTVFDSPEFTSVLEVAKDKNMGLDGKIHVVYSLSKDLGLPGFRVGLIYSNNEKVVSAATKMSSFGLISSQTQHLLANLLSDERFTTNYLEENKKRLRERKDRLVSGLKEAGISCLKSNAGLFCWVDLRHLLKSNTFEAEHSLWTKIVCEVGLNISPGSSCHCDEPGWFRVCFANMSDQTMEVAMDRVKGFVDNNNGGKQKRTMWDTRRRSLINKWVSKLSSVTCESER

SlACS4 = biological target: T5, SlACS4 (Solanum lycopersicum, UniProt P29535); assay: as above; type: biochemical
T5 construct: gene ACS4; recombinant, His or GST tag, from E. coli

AtACS7 = biological target: T6, AtACS7 (Arabidopsis thaliana, UniProt Q9STR4, Q98A); assay: as above; type: biochemical
T6 construct: gene ACS7; recombinant from E. coli Rosetta 2 (DE3) pLysS; pET-28a (His) or pGEX-6p-1 (GST); His-tagged protein for crystals; dimer
T6 sequence (Q9STR4 1-447 Q98A): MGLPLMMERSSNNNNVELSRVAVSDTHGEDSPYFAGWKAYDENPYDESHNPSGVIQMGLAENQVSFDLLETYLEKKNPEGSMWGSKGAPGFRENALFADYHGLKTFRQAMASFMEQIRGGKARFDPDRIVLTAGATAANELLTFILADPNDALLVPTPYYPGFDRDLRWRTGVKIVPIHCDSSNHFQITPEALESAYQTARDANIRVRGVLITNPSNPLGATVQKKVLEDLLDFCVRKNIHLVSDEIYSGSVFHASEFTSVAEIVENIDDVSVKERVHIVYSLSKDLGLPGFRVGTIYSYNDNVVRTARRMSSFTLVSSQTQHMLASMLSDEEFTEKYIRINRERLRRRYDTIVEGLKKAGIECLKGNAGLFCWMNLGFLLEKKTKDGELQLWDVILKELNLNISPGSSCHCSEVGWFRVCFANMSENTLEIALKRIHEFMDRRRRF

OsACS5 = biological target: T7, OsACS5 (Oryza sativa, UniProt A0A0P0UZP7)
T7 construct: gene ACS5
T7 sequence (A0A0P0UZP7 whole entry): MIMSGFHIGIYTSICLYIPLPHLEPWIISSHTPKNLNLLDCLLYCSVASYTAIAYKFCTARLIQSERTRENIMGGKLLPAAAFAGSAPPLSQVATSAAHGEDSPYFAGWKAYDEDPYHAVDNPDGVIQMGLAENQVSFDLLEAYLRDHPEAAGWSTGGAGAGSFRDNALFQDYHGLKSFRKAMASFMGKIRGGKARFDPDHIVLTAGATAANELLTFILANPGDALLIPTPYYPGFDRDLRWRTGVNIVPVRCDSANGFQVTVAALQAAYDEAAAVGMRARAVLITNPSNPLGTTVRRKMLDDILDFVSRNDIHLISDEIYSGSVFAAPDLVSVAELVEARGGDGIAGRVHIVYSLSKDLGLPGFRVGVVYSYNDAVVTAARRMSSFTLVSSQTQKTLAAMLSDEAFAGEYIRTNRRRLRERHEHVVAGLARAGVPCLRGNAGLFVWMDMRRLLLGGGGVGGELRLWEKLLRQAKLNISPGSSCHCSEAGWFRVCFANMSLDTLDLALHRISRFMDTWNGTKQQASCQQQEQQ

T5 sequence (P29535 whole entry): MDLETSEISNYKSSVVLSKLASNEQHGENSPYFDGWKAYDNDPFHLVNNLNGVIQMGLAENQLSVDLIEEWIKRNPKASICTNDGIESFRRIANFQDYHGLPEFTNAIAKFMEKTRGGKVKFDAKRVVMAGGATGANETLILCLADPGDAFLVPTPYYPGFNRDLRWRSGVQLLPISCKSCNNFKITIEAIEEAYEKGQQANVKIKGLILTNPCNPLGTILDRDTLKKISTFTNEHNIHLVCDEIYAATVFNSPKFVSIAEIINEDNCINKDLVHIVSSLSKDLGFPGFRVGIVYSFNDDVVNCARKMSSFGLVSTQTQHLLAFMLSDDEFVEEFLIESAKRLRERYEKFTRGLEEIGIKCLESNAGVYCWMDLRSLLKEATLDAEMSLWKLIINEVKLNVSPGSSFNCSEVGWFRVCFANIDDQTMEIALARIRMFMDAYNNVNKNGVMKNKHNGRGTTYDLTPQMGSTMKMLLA

Q: Which results are given for N[C@@H](CSSC[C@H](N)C(=O)O)C(=O)O [L-cystine]?
A: pyruvate formation, 2,4-dinitrophenylhydrazine, A520 (OsACS1): all of them had ACS and Cβ-S lyase dual enzymatic activities; pyruvate formation, 2,4-dinitrophenylhydrazine, A520 (AtACS8): all of them had ACS and Cβ-S lyase dual enzymatic activities; pyruvate formation, 2,4-dinitrophenylhydrazine, A520 (AtACS6): all of them had ACS and Cβ-S lyase dual enzymatic activities; pyruvate formation, 2,4-dinitrophenylhydrazine, A520 (AtACS11): all of them had ACS and Cβ-S lyase dual enzymatic activities; pyruvate formation, 2,4-dinitrophenylhydrazine, A520 (SlACS4): all of them had ACS and Cβ-S lyase dual enzymatic activities; pyruvate formation, 2,4-dinitrophenylhydrazine, A520 (AtACS7): the mutant had high in vitro Cβ-S lyase activity; pyruvate formation, 2,4-dinitrophenylhydrazine, A520 (OsACS5): all of them had ACS and Cβ-S lyase dual enzymatic activities

From PMC8580319, “Dual activities of ACC synthase: Novel clues regarding the molecular evolution of ACS genes” (Science Advances, 2021)
